Assay results taken from US9901639B2, “Bone marrow origin progenitor cell or endothelial progenitor cell in combination with DNMT1 gene therapy for vascular repair in metabolic disease” (Temple University—of the Commonwealth System of Higher …, priority 2015, dated 2018).

Assays:
Assay type in all cases: cell-based, human
hEPCs [1] = test: hEPC scratch wound migration assay
Excerpt: (§1) In this study EPCs refer to endothelial colony-forming cells (ECFCs) and their progenitor cell capacities were characterized as described (Wu, Y et al., J Thromb Haemost, 2010; 8:185-193; Wang, H et al., Circulation research, 2004; 94:843 and Stellos, K et al., Eur Heart J., 2009; 30:584-593). Briefly, human blood was collected from healthy volunteer donors. All volunteers had no risk factors of CVD including hypertension, diabetes, smoking, positive family history of premature CVD and hypercholesterolemia, and were all free of wounds, ulcers, retinopathy, recent surgery, inflammatory, malignant diseases, and medications that may influence EPC kinetics. After dilution with HBSS (1:1), blood was overlaid onto Histopaque 1077 (Sigma-Aldrich Co. LLC, St. Louis, Mo.) in the ratio of 1:1 and centrifuged at 740 g for 30 minutes at room temperature. Buffy coat MNCs were collected and centrifuged at 700 g for 10 minutes at room temperature. MNCs were cultured in collagen type I (BD Bioscience, San Diego) (50 m/ml)-coated dishes with EBM2 basal medium (Lonza Inc., Allendale, N.J.) plus standard EGM-2 SingleQuotes (Lonza Inc., Allendale, N.J.) that includes 2% fetal bovine serum (FBS), EGF (20 ng/ml), hydrocortisone (1 μg/ml), bovine brain extract (12 μg/ml), gentamycin (50 μg/ml), amphotericin B (50 ng/ml), and epidermal growth factor (10 ng/ml). Colonies appeared between 5 and 22 days of culture were identified as a well-circumscribed monolayer of cobblestone-appearing cells. ECFCs with endothelial lineage markers expression, robust proliferative potential, colony-forming, and vessel-forming activity in vitro are defined as EPCs as described (Wang, H et al., Circulation research, 2004; 94:843 and Stellos, K et al., Eur Heart J., 2009; 30:584-593). Passage 4 to 6 EPCs were used for experiments. For a brief characterization, endothelial phagocytosis function was confirmed by incubating EPC in 4-well chamber slide with 1, 1-dioctadecyl-3, 3, 3, 3-tetramethylindocarbocyanine (DiI)-labeled acetylated low-density lipoprotein (acLDL) (Biomedical Technologies, Inc., Stoughton, Mass.) (5 m/ml) at 37° C. for 1 h, washed 3 times for 15 min in PBS, and then fixed with 2% paraformaldehyde for 10 min. […] After staining, cells were imaged with high-power fields under an inverted fluorescent microscope (Axiovert 200, Carl Zeiss, Thornwood, N.Y.) at 200× magnification and quantified using Image J software. […]
EPC migration was evaluated using a scratch wound assay as previously described (Tan, H et al., Cardiovascular research, 2006; 69:253-262). […]

hEPCs [2] = test: hEPC viability by crystal violet staining; conditions: L-Hcy 48 h
Method: Confluent hEPCs were treated with L-Hcy at indicated concentrations for functional studies as described in the section of Methods. FIG. 5A. […] FIG. 5B. Representative images of hEPC adhesion. hEPCs treated with L-Hcy for 48 h were harvested and plated on fibronectin-coated cell culture plates for 1 hour at 37° C. Attached cells were photographed and quantified in high-power fields under an inverted microscope. FIG. 5C. Quantitative analysis of adhesion. FIG. 5D. Representative images of hEPC migration. Confluent hEPCs were incubated with L-Hcy for 48 h, scratched to create a wound and evaluated for migration after 20 h. E. Quantitative analysis of migration. FIG. 5F. Quantitative analysis of hEPC proliferation. 80% confluent hEPCs were treated with L-Hcy for 24 h and labeled with ^3[H]-thymidine for the last 4 h. Incorporated ^3[H]-thymidine was measured in a liquid scintillation counter. FIG. 5G. Quantitative analysis of hEPC viability. Confluent hEPCs were treated with L-Hcy for 48 h and nuclear counts determined by crystal violet staining to determine the viable cells. Data are representative of 3 separate experiments and are shown as mean±SD. *P<0.05 versus control. hEPCs; human endothelial progenitor cells; Hcy, homocysteine.

hEPCs [3] = test: hEPC 3H-thymidine incorporation proliferation assay; conditions: L-Hcy 50 to 250 μmol/L, 24 h
Excerpt: In this study EPCs refer to endothelial colony-forming cells (ECFCs) and their progenitor cell capacities were characterized as described (Wu, Y et al., J Thromb Haemost, 2010; 8:185-193; Wang, H et al., Circulation research, 2004; 94:843 and Stellos, K et al., Eur Heart J., 2009; 30:584-593). Briefly, human blood was collected from healthy volunteer donors. All volunteers had no risk factors of CVD including hypertension, diabetes, smoking, positive family history of premature CVD and hypercholesterolemia, and were all free of wounds, ulcers, retinopathy, recent surgery, inflammatory, malignant diseases, and medications that may influence EPC kinetics. […] After staining, cells were imaged with high-power fields under an inverted fluorescent microscope (Axiovert 200, Carl Zeiss, Thornwood, N.Y.) at 200× magnification and quantified using Image J software. […]
^3H thymidine incorporation assay was used to detect EPC proliferation activity as previously described (Tan, H et al., Cardiovascular research, 2006; 69:253-262). ^3EPCs were seeded onto 24-well plates (5×10^4 cells/well) in EGM2 medium and exposed to L-Hcy (50 to 250 μmol/L) for 24 h after grown to 70-80% confluence. […] Incorporated [methyl-^3H] thymidine was measured in a liquid scintillation counter (PerkinElmer Inc. Waltham, Mass., USA).

hEPCs [4] = test: hEPC adhesion assay on fibronectin; conditions: L-Hcy 250 μmol/L, 48 h
Excerpt: as §1, with “cells.” for “cells. ECFCs with endothelial lineage markers expression, robust proliferative potential, colony-forming, and vessel-forming activity in vitro are defined as EPCs as described (Wang, H et al., Circulation research, 2004; 94:843 and Stellos, K et al., Eur Heart J., 2009; 30:584-593). Passage 4 to 6 EPCs were used for experiments. For a brief characterization, endothelial phagocytosis function was confirmed by incubating EPC in 4-well chamber slide with 1, 1-dioctadecyl-3, 3, 3, 3-tetramethylindocarbocyanine (DiI)-labeled acetylated low-density lipoprotein (acLDL) (Biomedical Technologies, Inc., Stoughton, Mass.) (5 m/ml) at 37° C. for 1 h, washed 3 times for 15 min in PBS, and then fixed with 2% paraformaldehyde for 10 min.”
EPC adhesion to extracellular matrix (ECM) was evaluated as previously described. […] Adherent cells were photographed with high-power fields under an inverted fluorescent microscope (Axiovert 200, Carl Zeiss, Thornwood, N.Y.) at 200× magnification and quantified by counting the attached cells using image J.

N[C@@H](CCS)C(=O)O [L-Hcy, homocysteine]
hEPC migration (value in brackets) (hEPCs [1]; Hcy 100 μmol/L): 54.6±2.8
hEPC migration reduced to (hEPCs [1]; Hcy 100 μmol/L): 68%
hEPC migration (value in brackets) (hEPCs [1]; Hcy 250 μmol/L): 49.7±1.1
hEPC migration reduced to (hEPCs [1]; Hcy 250 μmol/L): 62%
EPC viability (hEPCs [2]): no effect
DNA synthesis ([3H] thymidine uptake) (hEPCs [3]): dose sensitively inhibited
EPC adhesion to fibronectin compared with the control (hEPCs [4]): 57%
Hcy-suppressed adhesion in hEPC (without 12G10) (hEPCs [4]; adhesion rescue experiment): 62%
EPC adhesion to fibronectin (hEPCs [4]; control 0.13±0.006): 0.06±0.008 OD630 nm
